Test results reported in patent publication US10851072B2 (THE REGENTS OF THE UNIVERSITY OF MICHIGAN, priority 2018, dated 2020).

Columns and labels:
[1] = tested on: serum response element (SRE); assay: SRE.L-Luciferase Reporter Assay; assay type: cell-based; conditions: Homo sapiens, HEK-293T cells co-transfected with Gα12Q231L, SRE.L and pRL-TK plasmids, 19 hrs treatment
Protocol: Biological activity of the compounds disclosed herein were assessed in the SRE.L luciferase reporter assay. HEK-293T cells were co-transfected with 2 ng of the Gα12Q231L expression plasmid along with 50 ng of the SRE.L and 7 ng of the pRL-TK luciferase reporter plasmids, as described in the Materials and Methods section. Cells were treated with 0 (vehicle, DMSO alone), 1, 3, 10, 30, and 100 μM of a compound disclosed herein for 19 hrs after transfection before lysis. Luminescence was determined as described in the Materials and Methods section. Just before cell lysis, the viability of the cells was measured using the WST-1 cell proliferation reagent as described in the Materials and Methods section. Data are expressed as percentage of inhibition (DMSO alone=0%). The experiments were performed three separate times to achieve n=3 in triplicate.

[2] = tested on: C57BL/6J mice; assay: In vivo testing for antifibrotic effects (bleomycin skin injections); conditions: skin of bleomycin-injected mice, A1 3 or 10 mg/kg PO daily, fourteen days
Protocol: C57BL/6J mice were ordered from Jackson labs for delivery at 15-16 weeks of age. Mice were preconditioned with supplemental chow for two weeks prior to start of experiment. Mice were randomized by weight into four groups (vehicle, A1 (3 mg/kg), A1 (10 mg/kg), PBS). Each group consisted of two cages with four mice per cage. Drug stock solutions were aliquoted and stored at 4° C. for the duration of the study. Aliquots were warmed to 37° C. and briefly vortexed prior to filling the gavage syringes. Vehicle and A1 groups received daily bleomycin injections (0.1 mL, ID) each afternoon in a defined area of shaved dorsal skin. PBS control group received daily injections (0.1 mL, ID) of PBS in the afternoon. Mice were anesthetized with ketamine/xylazine for ID injections. […]
Fixed skin was paraffin embedded and sectioned at the University of Michigan Comprehensive Cancer Center Histology Core. […] Stained sections were analyzed with an Olympus BX51\DP72 microscope. Dermal thickness was determined by measuring the maximal distance between the epidermal-dermal junction and the dermal-subcutaneous fat junction. […]
Skin sections were weighed and hydrolyzed in 6M HCl at 120° C. for three hours. […] Absorbance was measured at 560 nm using a Synergy HT microplate reader (BioTek Instruments). […]

[3] = MLM metabolic stability (half-life); assay type: in vitro ADME, mice; conditions: mouse, mouse liver microsomes (MLM), 1 μM compound, beta-NADPH 1 mM, 60 min, LC-MS, read-out: MLM T1/2
Protocol: Compounds (1 μM) were incubated with MLM in the presence of beta-NADPH (1 mM) for 60 min. The remaining drug concentration was measured using LC-MS using multiple reaction monitoring (MRM) mode. Both initial and overall disappearance rate and half-lives were calculated. […] Verapamil was run as a positive control in every assay; its half-life could not exceed 4 min or the assay was considered invalid.

| IC50 ([1]; Table E) [nM] | IC50 ([1]; Table C) [nM] | Structure (SMILES) | further results |
| --- | --- | --- | --- |
| 15 |  | O=C(O)[C@@H]1CC[C@H](Sc2nnc(-c3ccc(Cl)cc3Cl)o2)C1 (relative stereo) [Compound B7, cis-3-((5-(2,4-dichlorophenyl)-1,3,4-oxadiazol-2-yl)thio)cyclopentanecarboxylic acid] |  |
| > 100000 |  | O=C(O)[C@H]1CC[C@H](Sc2nnc(-c3ccc(Cl)cc3Cl)o2)C1 (relative stereo) [Compound B8, trans-3-((5-(2,4-dichlorophenyl)-1,3,4-oxadiazol-2-yl)thio)cyclopentanecarboxylic acid] |  |
|  | 1.8 | O=C(O)CCCSc1nnc(-c2ccc(Cl)cc2Cl)o1 [CCG-232120, reference compound] |  |
| 140 |  | O=C(O)[C@H]1C[C@H](Sc2nnc(-c3ccc(Cl)cc3Cl)o2)C1 [Compound B1, trans-3-((5-(2,4-dichlorophenyl)-1,3,4-oxadiazol-2-yl)thio)cyclobutanecarboxylic acid] |  |
| 4.9 |  | O=C(O)[C@H]1C[C@@H](Sc2nnc(-c3ccc(Cl)cc3Cl)o2)C1 [Compound B2, cis-3-((5-(2,4-Dichlorophenyl)-1,3,4-oxadiazol-2-yl)thio)cyclobutanecarboxylic acid] | half-life at 1 μM [3]: > 1 h |
| 0.46 |  | O=C(O)[C@H]1C[C@@H](Sc2nnc(-c3ccc(C4CC4)cc3Cl)o2)C1 [Compound B3, cis-3-((5-(2-chloro-4-cyclopropylphenyl)-1,3,4-oxadiazol-2-yl)thio)cyclobutanecarboxylic acid] |  |
| 2.6 |  | O=C(O)[C@H]1C[C@H](Sc2nnc(-c3ccc(C4CC4)cc3Cl)o2)C1 [Compound B4, trans-3-((5-(2-chloro-4-cyclopropylphenyl)-1,3,4-oxadiazol-2-yl)thio)cyclobutanecarboxylic acid] |  |
| 42 |  | O=C(O)[C@H]1C[C@@H](Sc2nnc(-c3ccc(C(F)(F)F)cc3Cl)o2)C1 [Compound B5, cis-3-((5-(2-chloro-4-(trifluoromethyl)phenyl)-1,3,4-oxadiazol-2-yl)thio)cyclobutanecarboxylic acid] |  |
| 1000 |  | O=C(O)[C@H]1C[C@H](Sc2nnc(-c3ccc(C(F)(F)F)cc3Cl)o2)C1 [Compound B6, trans-3-((5-(2-chloro-4-(trifluoromethyl)phenyl)-1,3,4-oxadiazol-2-yl)thio)cyclobutanecarboxylic acid] |  |
| > 100000 |  | O=C(O)[C@H]1CC[C@@H](Sc2nnc(-c3ccc(Cl)cc3Cl)o2)CC1 [Compound B9, cis-4-((5-(2,4-dichlorophenyl)-1,3,4-oxadiazol-2-yl)thio)cyclohexanecarboxylic acid] |  |
| > 100000 |  | O=C(O)[C@H]1CC[C@H](Sc2nnc(-c3ccc(Cl)cc3Cl)o2)CC1 [Compound B10, trans-4-((5-(2,4-dichlorophenyl)-1,3,4-oxadiazol-2-yl)thio)cyclohexanecarboxylic acid] |  |

Further lines, the molecule ahead of its results:

| Structure (SMILES) | IC50 ([1]; Table E) [nM] | IC50 ([1]; Table C) [nM] | further results |
| --- | --- | --- | --- |
| O=C(O)CCCSc1nnc(-c2ccc(C3CC3)cc2Cl)o1 [Compound A1, 4-((5-(2-chloro-4-cyclopropylphenyl)-1,3,4-oxadiazol-2-yl)thio)butanoic acid] |  |  | collagen thickness ([2]; Masson's trichrome, dermal thickness, FIG. 2): reduction; hydroxyproline content ([2]; FIG. 1): reduction; half-life at 1 μM [3]: 0.783 h; IC50 ([1]; Table D): 0.0012 nM |
| O=C(O)CCCSc1nnc(-c2ccc(C(F)(F)F)cc2Cl)o1 [Compound A2] |  |  | half-life at 1 μM [3]: > 1 h |
| O=C(O)CCCSc1nnc(-c2cc(C3CC3)ccc2Cl)o1 [Compound A4, 4-((5-(2-chloro-5-cyclopropylphenyl)-1,3,4-oxadiazol-2-yl)thio)butanoic acid] |  |  | IC50 ([1]; Table D): 11 nM |
| O=C(O)CCCSc1nnc(-c2ccccc2C(F)(F)F)o1 [Compound A5, 4-((5-(2-(trifluoromethyl)phenyl)-1,3,4-oxadiazol-2-yl)thio)butanoic acid] |  | 6200 |  |
| O=C(O)CCCSc1nnc(-c2ccccc2F)o1 [Compound A6, 4-((5-(2-fluorophenyl)-1,3,4-oxadiazol-2-yl)thio)butanoic acid] |  | 211 |  |
| O=C(O)CCCSc1nnc(-c2ccc(OCC3CC3)cc2Cl)o1 [Compound A7, 4-((5-(2-chloro-4-(cyclopropylmethoxy)phenyl)-1,3,4-oxadiazol-2-yl)thio)butanoic acid] |  |  | IC50 ([1]; Table D): 0.02 nM |
| O=C(O)CCCSc1nnc(-c2ccc(OC3CC3)cc2Cl)o1 [Compound A8, 4-((5-(2-chloro-4-cyclopropoxyphenyl)-1,3,4-oxadiazol-2-yl)thio)butanoic acid] |  |  | half-life at 1 μM [3]: > 1 h |
| COC(=O)CCCSc1nnc(-c2ccc(C3CC3)cc2Cl)o1 [Compound A10, Methyl 4-((5-(2-chloro-4-cyclopropylphenyl)-1,3,4-oxadiazol-2-yl)thio)butanoate] |  |  | IC50 ([1]; Table D): 3 nM |
| O=C(O)CCCSc1nnc(-c2ccc(OCC(F)(F)F)cc2Cl)o1 [Compound A12, 4-((5-(2-chloro-4-(2,2,2-trifluoroethoxy)phenyl)-1,3,4-oxadiazol-2-yl)thio)butanoic acid] |  | 0.8 | half-life at 1 μM [3]: > 1 h |
| O=C(O)CCCSc1nnc(-c2ccc(OC(F)(F)F)cc2Cl)o1 [Compound A14, 4-((5-(2-chloro-4-(trifluoromethoxy)phenyl)-1,3,4-oxadiazol-2-yl)thio)butanoic acid] |  | 3.6 |  |
| O=C(O)CCCSc1nnc(-c2ccc(OCC3COC3)cc2Cl)o1 [Compound A15, 4-((5-(2-chloro-4-(oxetan-3-ylmethoxy)phenyl)-1,3,4-oxadiazol-2-yl)thio)butanoic acid] |  |  | IC50 ([1]; Table D): 35 nM |
| CC1(COc2ccc(-c3nnc(SCCCC(=O)O)o3)c(Cl)c2)COC1 [Compound A16, 4-((5-(2-chloro-4-((3-methyloxetan-3-yl)methoxy)phenyl)-1,3,4-oxadiazol-2-yl)thio)butanoic acid] |  |  | IC50 ([1]; Table D): 42 nM |
| O=C(O)CCCSc1nnc(-c2ccc(OCC(F)(F)F)cc2)o1 [Compound A17, 4-((5-(4-(2,2,2-trifluoroethoxy)phenyl)-1,3,4-oxadiazol-2-yl)thio)butanoic acid] |  | 240 |  |
| O=C(O)CCCSc1nnc(-c2ccc(C(F)F)cc2)o1 [Compound A18, 4-((5-(4-(difluoromethyl)phenyl)-1,3,4-oxadiazol-2-yl)thio)butanoic acid] |  | 160 |  |
| O=C(O)CCCSc1nnc(-c2ccc(OC(F)(F)F)cc2)o1 [Compound A19, 4-((5-(4-(trifluoromethoxy)phenyl)-1,3,4-oxadiazol-2-yl)thio)butanoic acid] |  | 78 |  |
| O=C(O)CCCSc1nnc(-c2cccc(C(F)(F)F)c2Cl)o1 [Compound A20, 4-((5-(2-chloro-3-(trifluoromethyl)phenyl)-1,3,4-oxadiazol-2-yl)thio)butanoic acid] |  | 330 |  |
| CC(C)(F)c1ccc(-c2nnc(SCCCC(=O)O)o2)cc1 [Compound A22] |  | 9.5 |  |
| O=C(O)CCCSc1nnc(-c2ccc(OC(F)F)cc2)o1 [Compound A23, 4-((5-(4-(difluoromethoxy)phenyl)-1,3,4-oxadiazol-2-yl)thio)butanoic acid] |  | 130 |  |
| O=C(O)CCCSc1nnc(-c2ccc(Cl)cc2O)o1 [Compound C, 4-((5-(4-chloro-2-hydroxyphenyl)-1,3,4-oxadiazol-2-yl)thio)butanoic acid] |  | 0.02 |  |
